PubChem BioAssay (NCI)
Several values for one entry are separate records, joined by “and”; a condition that tells them apart may be missing. Equal entries are not always repeated.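 Test compounds were applied to cells in 96-well plates for 48 hours at 5 doses. Here, GI50 denotes the concentration required for 50% inhibition of growth. TGI denotes the concentration required for complete inhibition of growth.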

How the values were obtained:
Test in all cases: NCI anticancer screen, dose series, 48 h
[1] = system: A549 NSCLC
[2] = system: BT-549 breast
[3] = system: CAKI-1 renal
[4] = system: HT29 colon
[5] = system: MDA-MB-435
[6] = system: PC-3 prostate
[7] = system: SK-MEL-2 melanoma
[8] = system: SK-OV-3 ovarian
[9] = system: SR leukemia
[10] = system: TK-10 renal

SMILES: COc1ccc(/C=C/C(=O)c2ccc(Nc3ncnc4ccccc34)cc2)cc1OC
- GI50 [1]: 3.66 µM
- TGI [1]: > 100 µM
- GI50 [2]: 3.22 µM
- TGI [2]: 32 µM
- GI50 [3]: 16.8 µM
- TGI [3]: > 100 µM
- GI50 [4]: 3.21 µM
- TGI [4]: 12.1 µM
- GI50 [5]: 2.93 µM
- TGI [5]: > 100 µM
- GI50 [6]: 4.22 µM
- TGI [6]: > 100 µM
- GI50 [7]: 13.9 µM
- TGI [7]: 44.8 µM
- GI50 [8]: 4.23 µM
- TGI [8]: 35.5 µM
- GI50 [9]: 2.04 µM
- TGI [9]: 6.36 µM
- GI50 [10]: 8.29 µM
- TGI [10]: 62.9 µM

SMILES: N#Cc1nc(-c2cccc(Br)c2)cc(-c2ccc(Nc3nc(N4CCCCC4)nc(N4CCCCC4)n3)cc2)c1N
- GI50 [1]: 3.68 µM
- TGI [1]: > 100 µM
- GI50 [2]: 2.02 µM
- TGI [2]: 4.36 µM
- GI50 [3]: 1.93 µM
- TGI [3]: 5.03 µM
- GI50 [4]: 1.22 µM
- TGI [4]: 4.09 µM
- GI50 [5]: 2.35 µM
- TGI [5]: 6.64 µM
- GI50 [6]: 1.94 µM
- TGI [6]: 7.11 µM
- GI50 [7]: 2.09 µM
- TGI [7]: 4.61 µM
- GI50 [8]: 19.1 µM
- TGI [8]: > 100 µM
- GI50 [9]: 1.29 µM
- TGI [9]: > 100 µM
- GI50 [10]: 1.8 µM
- TGI [10]: 3.47 µM

SMILES: O=C(O)C(/C=C/c1ccco1)=N\Nc1nc(-c2ccc(Cl)cc2)cs1
- GI50 [1]: 16 µM
- TGI [1]: > 50 µM
- GI50 [2]: 16.9 µM
- TGI [2]: > 50 µM
- GI50 [3]: 16.6 µM
- TGI [3]: > 50 µM
- GI50 [4]: 20.9 µM
- TGI [4]: > 50 µM
- GI50 [5]: 11.3 µM
- TGI [5]: > 50 µM
- GI50 [6]: 17.3 µM
- TGI [6]: > 50 µM
- GI50 [7]: 9.45 µM
- TGI [7]: 24.8 µM
- GI50 [8]: 16.1 µM
- TGI [8]: > 50 µM
- GI50 [9]: 4.83 µM
- TGI [9]: > 50 µM
- GI50 [10]: 31.6 µM
- TGI [10]: > 50 µM

SMILES: Nc1nc(-n2cccn2)nc(-n2cccn2)c1Br
- GI50 [1]: > 100 µM
- TGI [1]: > 100 µM
- GI50 [2]: > 100 µM
- TGI [2]: > 100 µM
- GI50 [3]: 93.7 µM
- TGI [3]: > 100 µM
- GI50 [4]: > 100 µM
- TGI [4]: > 100 µM
- GI50 [5]: > 100 µM
- TGI [5]: > 100 µM
- GI50 [6]: > 100 µM
- TGI [6]: > 100 µM
- GI50 [7]: > 100 µM
- TGI [7]: > 100 µM
- GI50 [8]: > 100 µM
- TGI [8]: > 100 µM
- GI50 [9]: > 100 µM
- TGI [9]: > 100 µM

SMILES: COc1ccc(NC2=C(Sc3nc(C)cc(C)n3)C(=O)N(Cc3ccccc3)C2=O)cc1Cl
- GI50 [1]: > 160 µM
- TGI [1]: > 160 µM
- GI50 [2]: 89.5 µM
- TGI [2]: > 160 µM
- GI50 [3]: > 160 µM
- TGI [3]: > 160 µM
- GI50 [4]: 54.5 µM
- TGI [4]: > 160 µM
- GI50 [5]: 158 µM
- TGI [5]: > 160 µM
- GI50 [6]: 32.9 µM
- TGI [6]: > 160 µM
- GI50 [7]: 138 µM
- TGI [7]: > 160 µM
- GI50 [8]: > 160 µM
- TGI [8]: > 160 µM
- GI50 [9]: 37.5 µM
- TGI [9]: > 160 µM
- GI50 [10]: > 160 µM
- TGI [10]: > 160 µM

SMILES: CCOC(=O)c1sc(=S)c2c(C(=O)c3ccccc3)c(C(=O)c3ccccc3)sc2c1C(=O)OCC
- GI50 [1]: 5.17 µM
- TGI [1]: > 100 µM
- GI50 [2]: 3.43 µM
- TGI [2]: 12.6 µM
- GI50 [3]: 3.93 µM
- TGI [3]: > 100 µM
- GI50 [4]: 6.9 µM
- TGI [4]: > 100 µM
- GI50 [5]: 3.34 µM
- TGI [5]: 9.66 µM
- GI50 [6]: 3.61 µM
- TGI [6]: 35.4 µM
- GI50 [7]: 3.51 µM
- TGI [7]: 48.4 µM
- GI50 [8]: 37.4 µM
- TGI [8]: > 100 µM
- GI50 [9]: 2.58 µM
- TGI [9]: 5.98 µM
- GI50 [10]: 3.17 µM
- TGI [10]: 63.5 µM

SMILES: CC[C@@]1(O)C(=O)NCc2c1cc1n(c2=O)Cc2cc3cc4c(cc3nc2-1)OCO4
- GI50 [1]: 0.618 µM
- TGI [1]: > 73.4 µM
- GI50 [2]: 4.15 µM
- TGI [2]: > 100 µM
- GI50 [3]: 0.417 µM
- TGI [3]: > 9.04 µM
- GI50 [4]: 2.02 µM
- TGI [4]: 37.3 µM
- GI50 [5]: 2.11 µM
- TGI [5]: > 100 µM
- GI50 [6]: 2.38 µM
- TGI [6]: > 100 µM
- GI50 [7]: 67.5 µM
- TGI [7]: > 100 µM
- GI50 [8]: 1.5 µM
- TGI [8]: > 82.2 µM
- GI50 [9]: < 0.0176 µM
- TGI [9]: 0.2 µM
- GI50 [10]: 69.9 µM
- TGI [10]: > 100 µM

SMILES: C[C@]12CC[C@H]3[C@@H](CCC4=CC(=O)CC[C@@H]43)[C@@H]1CC[C@@H]2OC1(O)C(=O)c2ccccc2C1=O
- TGI [1]: > 100 µM
- TGI [2]: > 100 µM
- TGI [3]: > 100 µM
- TGI [4]: > 100 µM
- TGI [5]: > 100 µM
- TGI [6]: > 100 µM
- TGI [7]: > 100 µM
- TGI [8]: > 100 µM
- TGI [9]: > 100 µM
- TGI [10]: > 100 µM

SMILES: Cc1sc2ncnc(Sc3nc4ccccc4[nH]3)c2c1C
- GI50 [1]: 21.5 µM
- TGI [1]: 73 µM
- GI50 [2]: 27.2 µM
- TGI [2]: > 100 µM
- GI50 [3]: 25.4 µM
- TGI [3]: > 100 µM
- GI50 [4]: 21.9 µM
- TGI [4]: 53.6 µM
- GI50 [5]: 26.3 µM
- TGI [5]: > 100 µM
- GI50 [6]: 23.9 µM
- TGI [6]: > 100 µM
- GI50 [7]: 33.5 µM
- TGI [7]: 99 µM
- GI50 [8]: 24.3 µM
- TGI [8]: 65.6 µM
- GI50 [9]: 10.6 µM
- TGI [9]: 23 µM
- GI50 [10]: 28.5 µM
- TGI [10]: 62.4 µM

SMILES: Cn1cnc2c(F)c(Nc3ccc(Br)cc3Cl)c(C(=O)NOCCO)cc21
- GI50 [1]: 6.85 µM and 10.8 µM
- TGI [1]: > 100 µM
- GI50 [2]: > 10 µM and 30 µM
- TGI [2]: > 100 µM
- GI50 [3]: > 2.6 µM and 17.9 µM
- TGI [3]: > 100 µM
- GI50 [4]: 0.0278 µM and 0.0265 µM
- TGI [4]: > 100 µM
- GI50 [5]: 0.0709 µM and 0.0294 µM
- TGI [5]: > 100 µM
- GI50 [6]: > 100 µM
- TGI [6]: > 100 µM
- GI50 [7]: 0.0262 µM and < 0.0122 µM
- TGI [7]: 0.78 µM and 0.565 µM
- GI50 [8]: > 10 µM and 63.4 µM
- TGI [8]: > 100 µM
- GI50 [9]: > 10 µM and 5.85 µM
- TGI [9]: > 33.8 µM
- GI50 [10]: 0.183 µM and 1.62 µM
- TGI [10]: > 100 µM

SMILES: c1ccc(-c2nc(Nc3ccc(-c4nc5ccccc5[nH]4)cc3)nc(N3CCOCC3)n2)cc1
- GI50 [1]: 1.95 µM
- TGI [1]: 4.01 µM
- GI50 [2]: 1.98 µM
- TGI [2]: 3.9 µM
- GI50 [3]: 1.28 µM
- TGI [3]: 2.54 µM
- GI50 [4]: 0.646 µM
- TGI [4]: 2.19 µM
- GI50 [5]: 1.76 µM
- TGI [5]: 3.28 µM
- GI50 [6]: 1.8 µM
- TGI [6]: 3.64 µM
- GI50 [7]: 1.97 µM
- TGI [7]: 3.59 µM
- GI50 [8]: 2.11 µM
- TGI [8]: 4.23 µM
- GI50 [9]: 0.125 µM
- TGI [9]: 0.555 µM
- GI50 [10]: 2.15 µM
- TGI [10]: 3.76 µM

SMILES: C=C1C(=O)O[C@H]2[C@H]1CC/C(COC(=O)NCCc1ccc(OC)cc1)=C\CC[C@@]1(C)O[C@@H]21
- GI50 [1]: 13.2 µM
- TGI [1]: 28.4 µM
- GI50 [2]: 2.12 µM
- TGI [2]: 6.41 µM
- GI50 [3]: 2.52 µM
- TGI [3]: 7.53 µM
- GI50 [4]: 2.15 µM
- TGI [4]: 4.71 µM
- GI50 [5]: 3.53 µM
- TGI [5]: 11.8 µM
- GI50 [6]: 8.08 µM
- TGI [6]: 21.7 µM
- GI50 [7]: 8.97 µM
- TGI [7]: 21.9 µM
- GI50 [8]: 23 µM
- TGI [8]: 65.8 µM
- GI50 [9]: 2.07 µM
- TGI [9]: 7.87 µM
- GI50 [10]: 2.73 µM
- TGI [10]: 7.62 µM
